Each structure is given as a SMILES string.

In experiment [1] the target is Delta-type opioid receptor (Mus musculus, UniProt P32300). Kind of experiment: The compound was evaluated for the binding affinity towards delta-opioid receptor by displacement of [3H]p-CI-DPDPE radioligand from mouse vas deferens. It counts as tissue-based. For orientation: Displacement assays read how much labelled ligand stays bound in the presence of the test substance.

Experiment [2] deals with Mu-type opioid receptor (Cavia porcellus, UniProt P97266). Kind of experiment: The compound was evaluated for the binding affinity towards mu-opioid receptor by displacement of [3H]DAMGO radioligand from guinea pig ileum. The experiment is classed as tissue-based.
Mu-type opioid receptor, sequence (P97266 whole entry): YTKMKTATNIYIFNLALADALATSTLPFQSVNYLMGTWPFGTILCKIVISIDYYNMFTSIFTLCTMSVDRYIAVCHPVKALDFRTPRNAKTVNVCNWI

Delta-type opioid receptor, sequence (P32300 whole entry): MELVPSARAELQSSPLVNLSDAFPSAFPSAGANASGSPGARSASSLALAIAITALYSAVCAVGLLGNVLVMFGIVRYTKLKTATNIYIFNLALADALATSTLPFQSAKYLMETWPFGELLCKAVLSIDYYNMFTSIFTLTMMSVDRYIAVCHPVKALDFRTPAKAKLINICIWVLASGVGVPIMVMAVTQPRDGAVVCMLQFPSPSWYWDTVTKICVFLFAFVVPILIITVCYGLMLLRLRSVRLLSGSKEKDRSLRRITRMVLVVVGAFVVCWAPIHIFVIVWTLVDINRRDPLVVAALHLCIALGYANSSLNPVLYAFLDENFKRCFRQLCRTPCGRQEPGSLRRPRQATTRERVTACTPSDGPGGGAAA

One may read the IC50 as the concentration that gives 50% inhibition. A higher IC50 goes with weaker potency. Turning to `Cc1cc(O)cc(C)c1C(C)C(NC(=O)OC(C)(C)C)C(=O)N1Cc2ccccc2C[C@H]1C(=O)OCc1ccccc1` (some centres not stated), the values for the IC50 in experiment [1] and in experiment [2] were 0.019 µM and 8.4 µM, respectively.
Turning to `Cc1cc(O)cc(C)c1[C@@H](C)[C@@H](N)C(=O)N1Cc2ccccc2C[C@H]1C(=O)O`, the IC50 was over 10 µM in experiment [1] and over 80 µM in experiment [2].
In the case of `Cc1cc(O)cc(C)c1[C@H](C)[C@@H](N)C(=O)N1Cc2ccccc2C[C@H]1C(=O)O`, the IC50 in experiment [1] was over 10 µM; in experiment [2], over 80 µM.
As for `Cc1cc(O)cc(C)c1[C@@H](C)[C@H](N)C(=O)N1Cc2ccccc2C[C@H]1C(=O)O`, the IC50 worked out at 0.0093 µM in experiment [1] and 35 µM in experiment [2].
In the case of `Cc1cc(O)cc(C)c1[C@H](C)[C@H](N)C(=O)N1Cc2ccccc2C[C@H]1C(=O)O`, the IC50 is 0.124 µM in experiment [1] and over 80 µM in experiment [2].
One may read the Ki as a measure of affinity in units of concentration, obtained from inhibition or displacement. As to `NC(Cc1ccc(O)cc1)C(=O)N1Cc2ccccc2C[C@H]1C(=O)O` (single isomer, unassigned), the Ki stood at 0.191 µM in experiment [1] and 28.4 µM in experiment [2].

The values are drawn from ChEMBL document CHEMBL1152040, “The stereochemical requirements of the novel -opioid selective dipeptide antagonist TMT-Tic” (Bioorg Med Chem Lett, 1997).
